From ChEMBL document CHEMBL5385861, “Development of novel hydrazidoarylaminopyrimidine-based BTK/FLT3 dual inhibitors with potent in vivo anti-hematological malignancies effects” (Eur J Med Chem, 2023)
Calls of active or inactive are those of the source. The calls are words filed in the database; no cut-off is given here.

Legend:
MV4-11 [1] = test: Antitumor activity against human MV4-11 cells xenografted NOD/SCID mouse assessed as reduction in tumor weight at 20 mg/kg, ip administered once daily for 21 days; assay type: functional; conditions: time 21 day
MV4-11 [2] = test: Potency index, ratio of ibrutinib IC50 to test compound IC50 for antiproliferative activity against human MV4-11 cells; assay type: functional
[3] = target: Dual specificity mitogen-activated protein kinase kinase 1 (Homo sapiens) (UniProt Q02750); test: Inhibition of MEK1 (unknown origin) at 0.2 uM incubated for 40 mins by radiometric kinase assay relative to control
Sequence of Dual specificity mitogen-activated protein kinase kinase 1 (Homo sapiens) (Q02750 whole entry): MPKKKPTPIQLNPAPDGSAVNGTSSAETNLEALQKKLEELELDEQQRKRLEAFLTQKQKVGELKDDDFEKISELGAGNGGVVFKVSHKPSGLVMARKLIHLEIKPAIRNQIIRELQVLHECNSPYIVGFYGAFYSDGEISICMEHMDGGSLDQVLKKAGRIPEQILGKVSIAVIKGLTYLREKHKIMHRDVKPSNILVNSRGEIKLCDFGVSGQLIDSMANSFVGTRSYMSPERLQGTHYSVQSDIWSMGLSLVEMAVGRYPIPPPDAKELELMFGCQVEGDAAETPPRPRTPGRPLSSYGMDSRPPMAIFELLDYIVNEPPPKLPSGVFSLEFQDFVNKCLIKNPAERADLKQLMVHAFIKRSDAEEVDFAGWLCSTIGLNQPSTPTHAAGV

JeKo-1 [4] = test: Induction of apoptosis in human JeKo-1 cells assessed as upregulation of p53 protein expression incubated for 72 hrs by Western blot analysis; assay type: functional, cell-based; conditions: dose 30-750 nM
[5] = target: Receptor-type tyrosine-protein kinase FLT3 (Homo sapiens, UniProt P36888); test: Inhibition of FLT3 (unknown origin) incubated for 40 mins by radiometric kinase assay
[6] = target: Mitogen-activated protein kinase 9 (Homo sapiens) (UniProt P45984); test: Inhibition of JNK2alpha2 (unknown origin) at 0.2 uM incubated for 40 mins by radiometric kinase assay relative to control
Sequence of Mitogen-activated protein kinase 9 (Homo sapiens) (P45984 whole entry, looked up): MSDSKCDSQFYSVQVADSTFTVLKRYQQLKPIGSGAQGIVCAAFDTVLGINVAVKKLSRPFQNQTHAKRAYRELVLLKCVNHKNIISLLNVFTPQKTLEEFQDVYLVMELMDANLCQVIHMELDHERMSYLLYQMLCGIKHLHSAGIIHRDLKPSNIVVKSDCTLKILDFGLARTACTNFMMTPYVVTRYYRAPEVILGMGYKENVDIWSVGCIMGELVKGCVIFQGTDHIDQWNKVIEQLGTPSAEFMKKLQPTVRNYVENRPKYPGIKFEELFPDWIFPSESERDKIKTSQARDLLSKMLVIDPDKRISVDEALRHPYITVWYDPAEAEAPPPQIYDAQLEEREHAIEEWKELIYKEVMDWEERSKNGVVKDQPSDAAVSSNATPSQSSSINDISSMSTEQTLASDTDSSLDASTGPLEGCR

[7] = target: CDK6/cyclin D3 (Homo sapiens) (UniProt P30281+Q00534); test: Inhibition of CDK6/cyclinD3 (unknown origin) at 0.2 uM incubated for 40 mins by radiometric kinase assay relative to control; assay type: protein-complex assay
[8] = target: Mitogen-activated protein kinase 13 (Homo sapiens) (UniProt O15264); test: Inhibition of SAPK4 (unknown origin) at 0.2 uM incubated for 40 mins by radiometric kinase assay relative to control
Sequence of Mitogen-activated protein kinase 13 (Homo sapiens) (O15264 whole entry): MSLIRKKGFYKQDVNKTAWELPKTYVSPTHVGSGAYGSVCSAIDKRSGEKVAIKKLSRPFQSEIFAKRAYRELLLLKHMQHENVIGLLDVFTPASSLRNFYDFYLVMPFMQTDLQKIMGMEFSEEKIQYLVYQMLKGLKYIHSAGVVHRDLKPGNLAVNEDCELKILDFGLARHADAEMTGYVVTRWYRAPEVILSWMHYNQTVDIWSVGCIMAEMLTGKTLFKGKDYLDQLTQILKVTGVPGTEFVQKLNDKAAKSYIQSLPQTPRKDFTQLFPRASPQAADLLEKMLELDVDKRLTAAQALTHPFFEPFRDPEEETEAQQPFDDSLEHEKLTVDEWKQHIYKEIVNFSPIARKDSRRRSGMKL

[9] = Acute toxicity in ip dosed ICR mouse assessed as effect on RBC level at 200 mg/kg, ip measured for 2 weeks; assay type: organism-based, Erythrocyte; conditions: in vivo, 336 h
PBMC = test: Cytotoxicity against human PBMC cells assessed as reduction in cell viability; assay type: toxicity, cell-based
[10] = target: T1, Tyrosine-protein kinase BTK (Homo sapiens, UniProt Q06187); test: Inhibition of BTK phosphorylation in human JeKo-1 cells incubated for 72 hrs by Western blot analysis; assay type: cell-based; conditions: dose 30-750 nM
T1 sequence (Q06187 whole entry): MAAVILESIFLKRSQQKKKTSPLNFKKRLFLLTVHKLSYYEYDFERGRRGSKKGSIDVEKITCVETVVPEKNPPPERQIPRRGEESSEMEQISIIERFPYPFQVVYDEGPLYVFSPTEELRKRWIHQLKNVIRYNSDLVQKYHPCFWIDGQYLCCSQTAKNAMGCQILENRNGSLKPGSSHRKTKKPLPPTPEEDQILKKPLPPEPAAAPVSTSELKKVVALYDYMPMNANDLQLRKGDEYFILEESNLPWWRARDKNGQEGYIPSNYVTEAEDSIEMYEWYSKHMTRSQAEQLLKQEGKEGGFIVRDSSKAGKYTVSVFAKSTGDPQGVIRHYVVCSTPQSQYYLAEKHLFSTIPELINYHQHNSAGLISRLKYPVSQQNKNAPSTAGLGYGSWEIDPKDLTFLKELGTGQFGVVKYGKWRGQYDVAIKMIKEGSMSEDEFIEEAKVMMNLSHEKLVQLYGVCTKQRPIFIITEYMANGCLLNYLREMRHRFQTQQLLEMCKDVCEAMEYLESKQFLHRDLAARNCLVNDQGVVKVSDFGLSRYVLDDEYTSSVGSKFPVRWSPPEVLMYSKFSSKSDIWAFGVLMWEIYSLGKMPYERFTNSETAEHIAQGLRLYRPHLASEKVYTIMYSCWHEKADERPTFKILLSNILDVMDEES

[11] = target: Calcium/calmodulin-dependent protein kinase kinase 2 (Homo sapiens) (UniProt Q96RR4); test: Inhibition of CaMKK2 (unknown origin) at 0.2 uM incubated for 40 mins by radiometric kinase assay relative to control
Sequence of Calcium/calmodulin-dependent protein kinase kinase 2 (Homo sapiens) (Q96RR4 2-588 limits assumed): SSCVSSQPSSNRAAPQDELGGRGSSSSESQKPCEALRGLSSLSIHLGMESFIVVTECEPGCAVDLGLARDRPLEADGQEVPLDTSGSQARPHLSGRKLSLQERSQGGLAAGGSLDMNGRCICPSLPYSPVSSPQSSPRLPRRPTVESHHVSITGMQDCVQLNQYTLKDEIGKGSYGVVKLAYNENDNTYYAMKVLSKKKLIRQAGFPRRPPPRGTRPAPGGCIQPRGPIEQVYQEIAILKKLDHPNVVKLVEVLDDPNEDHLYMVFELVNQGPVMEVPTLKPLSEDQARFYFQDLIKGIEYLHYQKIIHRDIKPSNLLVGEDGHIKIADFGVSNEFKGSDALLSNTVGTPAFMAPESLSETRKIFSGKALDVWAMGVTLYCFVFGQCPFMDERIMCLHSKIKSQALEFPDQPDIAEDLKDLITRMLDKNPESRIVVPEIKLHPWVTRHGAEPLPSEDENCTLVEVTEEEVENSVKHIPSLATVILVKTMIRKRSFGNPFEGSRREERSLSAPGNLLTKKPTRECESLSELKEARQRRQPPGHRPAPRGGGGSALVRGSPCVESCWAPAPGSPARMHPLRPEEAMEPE

[12] = target: RAF proto-oncogene serine/threonine-protein kinase (Homo sapiens) (UniProt P04049); test: Inhibition of c-RAF (unknown origin) at 0.2 uM incubated for 40 mins by radiometric kinase assay relative to control
Sequence of RAF proto-oncogene serine/threonine-protein kinase (Homo sapiens) (P04049 whole entry): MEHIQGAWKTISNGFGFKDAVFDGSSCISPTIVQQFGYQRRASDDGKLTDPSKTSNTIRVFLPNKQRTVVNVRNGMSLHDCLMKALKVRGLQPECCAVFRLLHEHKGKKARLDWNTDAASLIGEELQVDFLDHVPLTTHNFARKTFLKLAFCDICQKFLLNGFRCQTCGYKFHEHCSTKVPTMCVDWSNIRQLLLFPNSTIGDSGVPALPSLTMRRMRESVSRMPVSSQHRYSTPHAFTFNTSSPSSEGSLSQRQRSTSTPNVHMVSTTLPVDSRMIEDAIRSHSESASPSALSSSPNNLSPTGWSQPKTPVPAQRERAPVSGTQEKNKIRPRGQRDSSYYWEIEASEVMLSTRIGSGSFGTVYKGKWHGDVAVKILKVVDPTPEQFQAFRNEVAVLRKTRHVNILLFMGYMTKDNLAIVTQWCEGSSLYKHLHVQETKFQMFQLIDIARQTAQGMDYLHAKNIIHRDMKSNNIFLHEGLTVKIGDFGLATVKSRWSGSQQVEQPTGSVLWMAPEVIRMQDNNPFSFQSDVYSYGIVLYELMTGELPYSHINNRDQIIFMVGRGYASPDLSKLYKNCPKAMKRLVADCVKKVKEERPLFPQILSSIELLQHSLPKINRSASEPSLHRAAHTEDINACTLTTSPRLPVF

MV4-11 [13] = test: Potency index, ratio of sorafenib IC50 to test compound IC50 for antiproliferative activity against human MV4-11 cells; assay type: functional
MV4-11 [14] = test: Antitumor activity against human MV4-11 cells xenografted in NOD/SCID mouse assessed as tumor growth inhibition at 10 mg/kg ip administered once daily for 21 days; assay type: functional; conditions: MV4-11, 504 h, time 21 day, read-out: TGI
JeKo-1 [15] = test: Induction of apoptosis in human JeKo-1 cells assessed as early apoptotic cells at 750 nM incubated for 72 hrs by Annexin VFITC/PI staining based flow cytometry analysis (reference value: 3.10%); assay type: functional
JeKo-1 [16] = test: Antitumor activity against human JeKo-1 cells xenografted NOD/SCID mouse assessed as reduction in tumor weight at 25 mg/kg, ip measured for 16 days; assay type: functional; conditions: time 16 day
[17] = target: Vascular endothelial growth factor receptor 3 (Homo sapiens) (UniProt P35916); test: Inhibition of FLT4 (unknown origin) at 0.2 uM incubated for 40 mins by radiometric kinase assay relative to control
K562 = test: Potency index, ratio of sorafenib IC50 to test compound IC50 for antiproliferative activity against human K562 cells; assay type: functional
JeKo-1 [18] = test: Induction of apoptosis in human JeKo-1 cells assessed as viable cells at 750 nM incubated for 72 hrs by Annexin VFITC/PI staining based flow cytometry analysis (reference value: 94.81%); assay type: functional; conditions: Homo sapiens, JeKo-1, read-out: Activity
in vitro [19] = conditions: human, Caco-2
Description: Apparent permeability across apical to basolateral side in human Caco-2 cells incubated for 120 mins by LC-MS/MS analysis

[20] = target: MAP kinase-activated protein kinase 2 (Homo sapiens) (UniProt P49137); test: Inhibition of MAPKAP-K2 (unknown origin) at 0.2 uM incubated for 40 mins by radiometric kinase assay relative to control
Sequence of MAP kinase-activated protein kinase 2 (Homo sapiens) (P49137 whole entry, looked up): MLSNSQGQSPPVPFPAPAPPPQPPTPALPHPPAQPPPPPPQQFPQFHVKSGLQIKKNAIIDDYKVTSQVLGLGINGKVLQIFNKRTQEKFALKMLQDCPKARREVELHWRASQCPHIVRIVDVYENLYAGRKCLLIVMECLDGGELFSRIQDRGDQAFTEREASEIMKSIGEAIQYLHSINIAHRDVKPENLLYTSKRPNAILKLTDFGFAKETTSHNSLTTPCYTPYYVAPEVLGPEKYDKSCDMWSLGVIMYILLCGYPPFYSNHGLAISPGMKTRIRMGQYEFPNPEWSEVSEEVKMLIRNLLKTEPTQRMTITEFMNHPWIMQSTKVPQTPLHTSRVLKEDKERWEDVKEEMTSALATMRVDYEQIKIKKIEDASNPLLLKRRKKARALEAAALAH

[21] = Metabolic stability in human liver microsome assessed as half life preincubated with compound for 5 mins followed by NADPH addition and measured upto 60 mins by LC-MS/MS analysis; assay type: ADME; conditions: liver microsomes, time < 65 min
[22] = target: Signal transducer and activator of transcription 5A (Homo sapiens) (UniProt P42229); test: Inhibition of STAT5 phosphorylation in human JeKo-1 cells incubated for 72 hrs by Western blot analysis; assay type: cell-based; conditions: dose 30-750 nM
Sequence of Signal transducer and activator of transcription 5A (Homo sapiens) (P42229 whole entry): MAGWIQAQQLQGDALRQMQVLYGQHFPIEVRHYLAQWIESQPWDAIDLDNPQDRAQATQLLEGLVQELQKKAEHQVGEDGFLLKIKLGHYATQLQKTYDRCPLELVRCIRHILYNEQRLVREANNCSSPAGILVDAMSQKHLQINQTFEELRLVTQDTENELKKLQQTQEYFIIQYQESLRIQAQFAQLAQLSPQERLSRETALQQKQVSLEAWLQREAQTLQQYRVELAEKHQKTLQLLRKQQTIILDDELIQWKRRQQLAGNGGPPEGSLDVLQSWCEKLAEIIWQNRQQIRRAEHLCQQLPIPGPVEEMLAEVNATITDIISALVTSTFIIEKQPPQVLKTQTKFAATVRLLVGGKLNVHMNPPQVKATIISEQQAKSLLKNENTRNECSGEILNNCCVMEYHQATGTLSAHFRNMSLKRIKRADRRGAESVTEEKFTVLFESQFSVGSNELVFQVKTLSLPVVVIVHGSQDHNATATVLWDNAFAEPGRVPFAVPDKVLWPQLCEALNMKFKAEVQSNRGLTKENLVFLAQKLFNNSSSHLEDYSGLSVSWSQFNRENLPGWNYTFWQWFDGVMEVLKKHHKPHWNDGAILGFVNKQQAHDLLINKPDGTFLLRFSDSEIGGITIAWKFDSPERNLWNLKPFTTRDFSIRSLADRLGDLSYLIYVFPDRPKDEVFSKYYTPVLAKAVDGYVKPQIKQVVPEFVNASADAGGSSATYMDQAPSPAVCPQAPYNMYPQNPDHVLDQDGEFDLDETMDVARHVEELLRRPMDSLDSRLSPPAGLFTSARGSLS

[23] = target: T1, Tyrosine-protein kinase BTK; test: Inhibition of BTK (unknown origin) incubated for 40 mins by radiometric kinase assay
JeKo-1 [24] = test: Induction of apoptosis in human JeKo-1 cells assessed as late apoptotic cells at 750 nM incubated for 72 hrs by Annexin VFITC/PI staining based flow cytometry analysis (reference value: 1.42%); assay type: functional
JeKo-1 [25] = test: Induction of apoptosis in human JeKo-1 cells assessed as viable cells at 30 nM incubated for 72 hrs by Annexin VFITC/PI staining based flow cytometry analysis (reference value: 94.81%); assay type: functional; conditions: read-out: Activity
JeKo-1 [26] = test: Induction of apoptosis in human JeKo-1 cells assessed as downregulation of Bcl-2 protein expression at 30 to 750 nM incubated for 72 hrs by Western blot analysis; assay type: functional, cell-based; conditions: dose 30-750 nM
MV4-11 [27] = test: Potency index, ratio of spebrutinib IC50 to test compound IC50 for antiproliferative activity against human MV4-11 cells; assay type: functional
[28] = target: Serine/threonine-protein kinase PLK2 (Homo sapiens) (UniProt Q9NYY3); test: Inhibition of SNK (unknown origin) at 0.2 uM incubated for 40 mins by radiometric kinase assay relative to control
Sequence of Serine/threonine-protein kinase PLK2 (Homo sapiens) (Q9NYY3 whole entry, looked up): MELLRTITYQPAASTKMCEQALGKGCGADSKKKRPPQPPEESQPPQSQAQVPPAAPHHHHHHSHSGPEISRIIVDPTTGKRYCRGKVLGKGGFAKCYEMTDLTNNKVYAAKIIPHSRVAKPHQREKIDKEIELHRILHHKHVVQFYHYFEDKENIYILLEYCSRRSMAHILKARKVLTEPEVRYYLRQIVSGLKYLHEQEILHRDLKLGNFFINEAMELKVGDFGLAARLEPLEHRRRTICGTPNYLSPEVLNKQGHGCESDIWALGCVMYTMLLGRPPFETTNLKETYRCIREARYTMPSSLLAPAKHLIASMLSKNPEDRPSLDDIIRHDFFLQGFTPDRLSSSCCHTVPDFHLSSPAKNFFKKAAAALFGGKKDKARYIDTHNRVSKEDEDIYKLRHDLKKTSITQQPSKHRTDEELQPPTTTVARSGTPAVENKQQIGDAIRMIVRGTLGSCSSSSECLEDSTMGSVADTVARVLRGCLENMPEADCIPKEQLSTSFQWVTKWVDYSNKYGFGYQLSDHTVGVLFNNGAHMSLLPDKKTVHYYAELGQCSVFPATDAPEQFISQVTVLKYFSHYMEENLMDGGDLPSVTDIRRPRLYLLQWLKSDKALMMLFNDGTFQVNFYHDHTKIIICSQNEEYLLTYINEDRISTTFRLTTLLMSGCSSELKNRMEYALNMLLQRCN

MV4-11 [29] = test: Antitumor activity against human MV4-11 cells xenografted NOD/SCID mouse assessed as increase in tumor necrotic cells at 10 mg/kg, ip administered once daily for 21 days by H and E staining analysis; assay type: functional, organism-based; conditions: time 21.0 day
in vitro [30] = conditions: human, Caco-2; remark: listed apart in the source
Description: Apparent permeability across basolateral to apical side in human Caco-2 cells incubated for 120 mins by LC-MS/MS analysis

[31] = target: Receptor-type tyrosine-protein kinase FLT3 (Homo sapiens) (UniProt P36888); test: Inhibition of FLT3 phosphorylation in human JeKo-1 cells incubated for 72 hrs by Western blot analysis; assay type: cell-based; conditions: dose 30-750 nM
[32] = Toxicity in NOD/SCID mouse xenografted with human MV4-11 cells assessed as effect on body weight loss at 10 to 20 mg/kg, ip administered once daily for 21 days; assay type: organism-based; conditions: in vivo, 504 h, dose 10-20 mg/kg, time 21 day
JeKo-1 [33] = test: Antitumor activity against human JeKo-1 cells xenografted NOD/SCID mouse assessed as tumor growth inhibition at 25 mg/kg, ip measured for 16 days; assay type: functional; conditions: JeKo-1, 384 h, time 16 day, read-out: TGI
JeKo-1 [34] = test: Antitumor activity against human JeKo-1 cells xenografted NOD/SCID mouse assessed as reduction in tumor weight at 50 mg/kg, ip measured for 16 days; assay type: functional; conditions: time 16 day

CN1CCN(c2ccc(Nc3ncc(F)c(Nc4ccccc4C(=O)NN)n3)cc2)CC1
Activity (MV4-11 [1]): 0.08 g
Ratio IC50 (MV4-11 [2]): 6
inhibition [3]: -3%
Activity (JeKo-1 [4]): Dose-Dependent Effect
IC50 [5]: 12 nM
inhibition [6]: 11%
inhibition [7]: 23%
inhibition [8]: 3%
Activity [9]: Toxic
Activity (PBMC): Non-Toxic
inhibition [10]: Dose-Dependent Effect
inhibition [11]: 27%
inhibition [12]: -10%
Ratio IC50 (MV4-11 [13]): 1.3
inhibition in vivo at 10 mg/kg (MV4-11 [14]): 74.2%
Activity (JeKo-1 [15]): 37.89%
Activity (JeKo-1 [16]): 0.31 g
inhibition [17]: 100%
Ratio IC50 (K562): 1.3
viability at 0.75 µM (JeKo-1 [18]): 61.5%
Papp A→B at 2 h (in vitro [19]): 5.11 ×10⁻⁶ cm/s
inhibition [20]: 6%
half-life [21]: 41.5 min
inhibition [22]: Dose-Dependent Effect
IC50 [23]: 47 nM
Activity (JeKo-1 [24]): 0.47%
viability at 0.03 µM (JeKo-1 [25]): 87.5%
Activity (JeKo-1 [26]): Active
Ratio IC50 (MV4-11 [27]): 8
inhibition [28]: 43%
Activity (MV4-11 [29]): Active
Papp B→A at 2 h (in vitro [30]): 13.5 ×10⁻⁶ cm/s
inhibition [31]: Dose-Dependent Effect
Activity [32]: Non-Toxic
inhibition in vivo at 25 mg/kg (JeKo-1 [33]): 67%
Activity (JeKo-1 [34]): 0.18 g
